Measurements reported in patent US20060089340A1, “Novel steroids and steroid mimetics; method for their production; and use thereof” (priority 2003, published 2006).

- melting point: 188 to 191 °C
Structure (SMILES): COc1ccc2c(c1)CC[C@@H]1[C@@H]2CC[C@]2(C)[C@@H](O)C[C@@H](O)[C@]12F
